These results are taken from US8476025B2, “ATM-dependent phosphorylation of Sp1 is involved in the cellular response to DNA damage and enhances cellular survival after DNA damage” (Philadelphia Health and Education Corporation, priority 2007, dated 2013).

Read-outs that look alike come from different tables or passages of the source.

For assay [1], the system named is U2OS cells. The experiment in a line: Clonogenic rescue experiment in Sp1-depleted U2OS cells exposed to H2O2. The assay is classed as cell-based, human. Particulars: H2O2 for one hour, colonies counted after 11 days. As for the experimental part: In the case of the rescue experiment, U2OS cells were transfected with siRNA and replated 72 hours later. The cells were then transfected with WT Sp1 or Sp1-101A and 48 hours later cells were exposed to H2O2 and re-seeded onto 60 mm dishes. Colonies were fixed and stained in crystal violet 11 days after plating and then counted.

Assay [2] deals with Sp1 phosphorylation. Particulars: NHDFs.
The subject of assay [3] is Sp1 phosphorylation. Particulars: fibroblasts with wild-type ATM, one hour exposure.
In assay [4] the test system is Sp1 phosphorylation at serine 101. The assay is classed as cell-based, human. The conditions noted are these: U2OS, 10 μM ATM inhibitor.
The format of assay [5] is cell-based, human. The conditions noted are these: U2OS, 10 μM ATM inhibitor, 200 μM H2O2.
Assay [6] concerns ATM kinase activity. Nature of the assay: Indirect immunofluorescence for γSp1^101 and phospho-ATMs1981 in UV-exposed U2OS cells. Type of assay: cell-based, human. Particulars: 0.5 J/m^2 UV, pre-treated with 10 μM KU55933.
Method: U2OS cells were plated onto glass coverslips 24-36 hours before treatment. […] U2OS cells were washed in ice-cold PBS twice and pre-extracted in 0.2% Triton X-100/30% ddH2O/20 mM PMSF in PBS for 5 minutes at 4° C. Cells were then washed with PBS and fixed in 2% Para-formaldehyde/3% sucrose in PBS for 10 minutes at room temperature. Cells were washed twice in PBS at room temperature then permeablized in 0.5% Triton X-100 in PBS for 5 minutes at 4° C. Cells were washed 2 times in room temperature PBST (0.1% Tween 20, 0.02% Sodium azide in PBS) and incubated in primary antibody overnight at 4° C., mouse monoclonal γH2AX (ser139, Upstate Biotechnology), diluted 1:1000 in PBST solution, mouse P-ATMser1981 (Cell Signalling, diluted 1:1000) or rabbit polyclonal γSp1^101 (diluted 1:500, 21st Century Biotechnology). Cells were washed in PBST three times followed by the addition of secondary antibody, AlexaFlour488 donkey anti-rabbit, diluted 1:1000 in PBST and AlexaFlour594 donkey anti-mouse antibody, diluted 1:1000 in PBST for 1 hours in the dark. Cells were washed 4 times with PBST. Slides were mounted using Vectashield mounting medium containing DAPI (Vector Labs).
For assay [7], the target named is ATM (Homo sapiens, UniProt Q13315). The conditions noted are these: Hickson et al. 2004; cited from earlier work.
The subject of assay [8] is Phosphorylation of Sp1 and H2AX. Nature of the assay: Immunoblot of H2O2-induced Sp1 and H2AX phosphorylation in NHDFs pretreated with wortmannin or KU55933. The assay is classed as cell-based, human. Particulars: 200 μM H2O2, pre-treatment with 10 μM KU55933.

Chain of ATM (Q13315 whole entry): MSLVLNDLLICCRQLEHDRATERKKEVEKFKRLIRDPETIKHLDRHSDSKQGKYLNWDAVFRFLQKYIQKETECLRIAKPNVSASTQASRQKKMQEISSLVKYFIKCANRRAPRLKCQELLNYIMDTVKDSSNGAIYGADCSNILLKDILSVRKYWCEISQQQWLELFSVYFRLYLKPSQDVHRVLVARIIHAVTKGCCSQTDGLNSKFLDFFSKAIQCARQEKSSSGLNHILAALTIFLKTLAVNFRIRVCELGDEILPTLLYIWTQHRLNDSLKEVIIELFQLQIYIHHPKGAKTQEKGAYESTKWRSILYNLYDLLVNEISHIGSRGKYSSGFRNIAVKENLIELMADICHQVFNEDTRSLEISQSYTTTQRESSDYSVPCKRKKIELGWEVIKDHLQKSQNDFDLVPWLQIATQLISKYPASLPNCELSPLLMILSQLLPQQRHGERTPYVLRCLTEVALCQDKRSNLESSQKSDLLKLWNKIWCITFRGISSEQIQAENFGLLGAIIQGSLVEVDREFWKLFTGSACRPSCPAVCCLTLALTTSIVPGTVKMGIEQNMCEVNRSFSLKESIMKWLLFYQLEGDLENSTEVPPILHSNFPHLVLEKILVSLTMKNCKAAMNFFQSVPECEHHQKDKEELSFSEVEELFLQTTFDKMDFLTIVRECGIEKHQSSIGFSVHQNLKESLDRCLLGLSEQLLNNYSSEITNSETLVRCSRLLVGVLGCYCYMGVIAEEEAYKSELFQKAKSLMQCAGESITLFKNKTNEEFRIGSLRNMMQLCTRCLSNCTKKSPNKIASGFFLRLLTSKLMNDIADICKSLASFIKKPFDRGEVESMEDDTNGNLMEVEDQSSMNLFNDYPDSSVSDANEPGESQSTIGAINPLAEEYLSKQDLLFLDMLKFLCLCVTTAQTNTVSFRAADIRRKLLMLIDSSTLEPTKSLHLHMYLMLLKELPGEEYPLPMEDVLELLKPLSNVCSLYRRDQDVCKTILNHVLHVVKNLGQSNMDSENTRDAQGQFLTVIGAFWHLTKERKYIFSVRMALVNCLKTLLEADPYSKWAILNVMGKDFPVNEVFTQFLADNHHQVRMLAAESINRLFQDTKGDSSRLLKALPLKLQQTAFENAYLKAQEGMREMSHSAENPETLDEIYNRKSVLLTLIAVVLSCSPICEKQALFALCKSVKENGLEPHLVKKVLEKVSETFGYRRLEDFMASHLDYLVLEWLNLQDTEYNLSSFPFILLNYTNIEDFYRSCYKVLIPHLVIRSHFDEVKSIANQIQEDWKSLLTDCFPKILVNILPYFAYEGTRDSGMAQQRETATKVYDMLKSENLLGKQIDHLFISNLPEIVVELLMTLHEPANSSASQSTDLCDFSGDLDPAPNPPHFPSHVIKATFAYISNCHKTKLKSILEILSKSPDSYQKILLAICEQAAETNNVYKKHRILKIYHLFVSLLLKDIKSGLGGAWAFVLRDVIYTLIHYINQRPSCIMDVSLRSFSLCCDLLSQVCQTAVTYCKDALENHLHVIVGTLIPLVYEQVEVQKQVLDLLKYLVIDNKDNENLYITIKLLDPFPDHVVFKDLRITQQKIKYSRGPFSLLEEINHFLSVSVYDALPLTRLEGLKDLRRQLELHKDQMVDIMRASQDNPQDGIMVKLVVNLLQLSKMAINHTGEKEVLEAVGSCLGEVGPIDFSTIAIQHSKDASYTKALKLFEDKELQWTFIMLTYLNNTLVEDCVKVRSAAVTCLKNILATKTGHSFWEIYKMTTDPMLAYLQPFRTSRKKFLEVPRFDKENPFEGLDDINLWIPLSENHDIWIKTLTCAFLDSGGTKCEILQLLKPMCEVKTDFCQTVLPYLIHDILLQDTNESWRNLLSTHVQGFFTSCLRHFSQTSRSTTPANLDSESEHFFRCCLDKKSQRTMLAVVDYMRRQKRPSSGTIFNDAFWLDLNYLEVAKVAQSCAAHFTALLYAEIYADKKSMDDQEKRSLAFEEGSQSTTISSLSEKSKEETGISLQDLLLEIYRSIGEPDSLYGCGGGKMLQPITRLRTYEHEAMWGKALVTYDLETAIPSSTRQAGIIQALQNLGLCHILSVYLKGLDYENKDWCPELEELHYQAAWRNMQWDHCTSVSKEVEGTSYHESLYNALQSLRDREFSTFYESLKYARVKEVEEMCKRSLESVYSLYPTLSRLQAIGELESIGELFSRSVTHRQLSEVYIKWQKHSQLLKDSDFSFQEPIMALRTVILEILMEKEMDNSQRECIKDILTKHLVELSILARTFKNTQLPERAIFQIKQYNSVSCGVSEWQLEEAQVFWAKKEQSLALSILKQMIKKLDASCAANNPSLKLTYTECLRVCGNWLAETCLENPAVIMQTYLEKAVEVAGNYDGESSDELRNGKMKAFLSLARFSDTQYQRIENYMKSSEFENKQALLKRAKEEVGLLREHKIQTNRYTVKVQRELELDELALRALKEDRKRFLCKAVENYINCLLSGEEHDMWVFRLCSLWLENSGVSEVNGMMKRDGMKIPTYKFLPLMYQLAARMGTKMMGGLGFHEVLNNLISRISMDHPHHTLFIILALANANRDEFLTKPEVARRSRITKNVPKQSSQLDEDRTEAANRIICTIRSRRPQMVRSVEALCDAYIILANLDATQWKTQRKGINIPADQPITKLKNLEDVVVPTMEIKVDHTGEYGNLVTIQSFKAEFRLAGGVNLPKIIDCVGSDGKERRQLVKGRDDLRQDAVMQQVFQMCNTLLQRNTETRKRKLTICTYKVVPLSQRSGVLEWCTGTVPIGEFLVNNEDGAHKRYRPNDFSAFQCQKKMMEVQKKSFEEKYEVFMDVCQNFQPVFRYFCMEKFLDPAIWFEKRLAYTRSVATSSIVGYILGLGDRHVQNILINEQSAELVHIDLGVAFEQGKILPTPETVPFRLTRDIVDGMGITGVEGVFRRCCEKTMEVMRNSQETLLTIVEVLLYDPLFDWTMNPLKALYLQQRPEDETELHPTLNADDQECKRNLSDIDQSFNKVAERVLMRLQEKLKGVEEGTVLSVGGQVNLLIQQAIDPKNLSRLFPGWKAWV

As for “wild-type Sp1: exogenously expressed wild-type Sp1 (SEQ ID NO: 2) with HA-tag, transfected in pFLAG-CMV2”, the “Colony survival in response to H2O2” value in assay [1] was “restored survival to the level observed with non-targeting RNAi”.

Take `OO` [H2O2, hydrogen peroxide]: in assay [2] (200 μM H2O2), the “Time by which the 95 kDa form of Sp1 became the predominant species again” value was ≤ 8 h, the “Time of peak Sp1 phosphorylation” value is “one hour” and the “Time to first observed Sp1 phosphorylation post-treatment” value stood at 15 min. Also, in assay [2] (one hour exposure), the “H2O2 concentration at which 105 kDa becomes the major Sp1 species” value amounted to 200 µM and the “H2O2 concentration at which the Sp1 shift to 105 kDa is detected” value came to 50 µM. Besides, the “H2O2 concentration at which Sp1 was shifted completely to the 105 kDa form” value in assay [3] is 25 µM.

As for “Sp1^S101A: exogenously expressed Sp1 mutant with serine 101 changed to Ala, not phosphorylated in response to damage”, the “Colony survival in response to H2O2” value in assay [1] was “failed to rescue”.

In the case of `O=c1cc(-c2cccc3c2Sc2ccccc2S3)oc(N2CCOCC2)c1` [KU55933], in assay [4] (200 μM H2O2 for one hour), the “Electromobility shift in Sp1 from the 95 kDa to 105 kDa form” value is “blocked” and the “Phosphorylation of Sp1 at serine 101” value is on record as “abolished”. In addition, in assay [4] (30 J/m^2 UV for four hours), the “Overall electromobility shift of total Sp1” value is listed as “partial reduction” and the “Phosphorylation of Sp1 at serine 101” value is “abolished”. Also, the “Phosphorylation of H2AX” value in assay [5] is listed as “diminished”. In addition, in assay [6], the “ATM phosphorylation at serine 1981” value was “still phosphorylated” and the “γSp1^101 immunofluorescence signal” value was “lack of γSp1^101”. Also, the ATM kinase activity result in assay [7] is “inhibited”. Further, the “H2O2-induced phosphorylation of Sp1 and H2AX” value in assay [8] is given as “reduced but not abolished”.
